The values below come from patent publication US20110112164A1, “NOVEL POLYMORPHS AND PROCESSES FOR THEIR PREPARATION” (Generics (UK) Limited, priority 2008, published 2011).

Where two headings read alike, the source gives them in different places.

Data set [1] can be described thus: Hygroscopicity of crystalline forms of sunitinib malate. The class given is physicochemical. The conditions noted are these: crystalline solid form.
Data set [2] in a line: Stability (thermodynamic / polymorphic) of crystalline forms of sunitinib malate. The class given is physicochemical. Particulars: crystalline solid form.
The conditions of data set [3]: prior art form of WO 03/016305; cited from earlier work.
The conditions of data set [4]: prior art form of WO 03/016305; cited from earlier work. This is another data set of the same source.

As for `CCN(CC)CCNC(=O)c1c(C)[nH]c(/C=C2\C(=O)Nc3ccc(F)cc32)c1C.O=C(O)CC(O)C(=O)O` [form III, (Z)—N-[2-(diethylamino)ethyl]-5-(5-fluoro-2-oxo-2,3-dihydro-1H-indole-3-ylidenemethyl)-2,4-dimethyl-1H-pyrrole-3-carboxamide 2(S)-hydroxybutanedioic acid], the hygroscopicity result in data set [1] is “non-hygroscopic”. Moreover, the stability result in data set [2] is given as “stable”.

With `CCN(CC)CCNC(=O)c1c(C)[nH]c(/C=C2\C(=O)Nc3ccc(F)cc32)c1C.O=C(O)CC(O)C(=O)O` [Form II, (Z)—N-[2-(diethylamino)ethyl]-5-(5-fluoro-2-oxo-2,3-dihydro-1H-indole-3-ylidenemethyl)-2,4-dimethyl-1H-pyrrole-3-carboxamide 2(S)-hydroxybutanedioic acid], the hygroscopicity entry in data set [3] was “hygroscopic”. In data set [4], the polymorphic conversion entry is on record as “readily convert to form I” and the thermodynamic stability entry is listed as “thermodynamically unstable”.
